Experiments:
HEK293 cells = assay: Flow cytometry and confocal live-cell imaging of intracellular Cu^+; assay type: cell-based, Human; settings: HEK293 cells loaded with 100 μM copper chloride, with or without copper chelator
Procedure: Cells were grown in the Tissue Culture Facility at the University of California, Berkeley with expert technical assistance from Ann Fischer and Michelle Yasukawa. HEK (Human Embryonic Kidney) 293T cells were cultured in Dulbecco's Modified Eagle Medium (DMEM, Invitrogen, Carlsbad, Calif.) supplemented with 10% Fetal Bovine Serum (FBS, Invitrogen, Carlsbad, Calif.) and glutamine (2 mM). Two days before imaging, cells were passed and plated on 12-mm glass coverslips coated with poly-L-lysine ([…], Sigma, St. Louis, Mo.). For all experiments, solutions of dyes (from 5 mM stocks in DMSO) were made in Dulbecco's Phosphate buffered saline (DPBS, GIBCO) without calcium chloride, magnesium chloride, magnesium sulfate, sodium bicarbonate, or phenol red. For copper treatment, HEK 293T cells were cultured as described above. One day prior to imaging, 100 μM CuCl2 was added to cells from a 100 mM aqueous stock solution. Cells were then incubated at 37° C., 5% CO2. After 10-12 hours, the media was exchanged for DPBS. Flowcytometry were performed with LSRFortessaTM cell analyzer (BD Biosciences) equipping 640 nm red laser and PE-Cy7 band pass filter. Cells were prepared as described above, and then 3-5 μM CS788 or […] […] Confocal fluorescence images were acquired at the Molecular Imaging Center at the University of California, Berkeley. […]

[1] = Spectroscopic fluorescence response to Cu(I) and its pH dependency in HEPES buffer; assay type: physicochemical; settings: for fluorescence response to Cu(I): 20 mM HEPES, pH 7; for sensitivity of fluorescence to pH changes: physiological pH range
Procedure: (§1) Millipore water was used to prepare all aqueous solutions. All spectroscopic measurements were performed in 20 mM HEPES buffer, pH 7.0. Absorption spectra were recorded on a Varian Cary 50 spectrophotometer (Walnut Creek, Calif.) and fluorescence spectra were recorded on a Photo Technology International Quanta Master 4 L-format scan spectrofluorometer (Lawrenceville, N.J.) equipped with an LPS-220B 75-W xenon lamp and power supply, A-1010B lamp housing with integrated igniter, switchable 814 photocounting/analog photomultiplier detection unit, and MD5020 motor driver. Samples for absorption and emission measurements were contained in 1-cm×1-cm quartz cuvettes (1.4-mL volume, Starna, Atascadero, Calif.). Metals used in the selectivity assay were derived from their chloride salts or nitrate salts. The binding affinity of Cu^+ to the dyes was measured using thiourea as a competitive ligand to provide a buffered Cu^+ solution. Briefly, a 1-2 μM solution of dye was made in 20 mM HEPES, pH 7.0 and buffered with a known concentration of thiourea from a 500 mM stock in MilliQ H2O. Cu(I) was delivered in the form of [Cu(MeCN)4][PF6] from an acetonitrile stock solution (2 or 10 mM). The maximum acetonitrile concentration was 0.1%; this concentration of acetonitrile is not high enough to effectively compete with the dyes for Cu^+. Stability constants for thiourea binding were taken from the literature: β12=2.0×10^12, β13=2.0×10^14, β14=3.4×10^15. Martell, A. E.; Smith, R. M. Critical Stability Constants; Plenum Press: New York, 1989. The apparent dissociation constant (Kd) was determined using the following equation: (F−Fmin)/(Fmax−Fmin)=[Cu^+]/(Kd+[Cu^+]), where F is the observed fluorescence; Fmax is the fluorescence for the Cu^+:dye complex; Fmin is the fluorescence for the dye; and [Cu^+] is the ‘free’ Cu^+ available for complexation, which was calculated using the stability constants for thiourea and standard competition equilibrium expressions.

[2] = Metal selectivity assay (fluorescence response to various metal ions); assay type: binding; settings: 20 mM HEPES, pH 7
Procedure: as §1, with “Briefly, a 1-2 μM solution of dye was made in 20 mM HEPES, pH 7.0 and buffered with a known concentration of thiourea from a 500 mM stock in MilliQ H2O. Cu(I) was delivered in the form of [Cu(MeCN)4][PF6] from an acetonitrile stock solution (2 or 10 mM). The maximum acetonitrile concentration was 0.1%; this concentration of acetonitrile is not high enough to effectively compete with the dyes for Cu^+. Stability constants for thiourea binding were taken from the literature: β12=2.0×10^12, β13=2.0×10^14, β14=3.4×10^15. Martell, A. E.; Smith, R. M. Critical Stability Constants; Plenum Press: New York, 1989.” left out

SKH1 mice = assay: Fluorescence imaging experiments in living mice; assay type: in vivo; settings: for detection of endogenous levels of copper in mice: fluorescence imaging in mice; for detection of changes in copper levels in living mice: mice injected i.p. with copper chloride, copper chelator (ATN-224) or both, then dye
Procedure: Fluorescence images of mice were acquired using a Xenogen IVIS Spectrum instrument. SKH1 mice were obtained from Charles River Labs. Mice were single or group-housed on a 12:12 light-dark cycle at 22° C. with free access to food and water. SKH1 mice, aged 5-10 weeks, were anesthetized with isoflurane and injected with 1) DPBS (i.p., 100 μL), 2) CuCl2 (i.p., 5 mg/kg in 50 μL of DPBS) and DBPS (i.p., 50 μL), 3) CuCl2 (i.p., 5 mg/kg in 50 μL of DPBS) and ATN-224 (i.p., 5 mg/kg in 50 μL of DPBS), or 4) ATN-224 (i.p., 5 mg/kg in 50 μL of DPBS) and DBPS (i.p., 50 μL). 0-24 hours later, the mice were anesthetized with isoflurane and injected (i.p.) with DPBS (50 μL) or a dye (0.1 mM, 50 μL) and imaged immediately or up to 10 days later. All animal studies were approved and performed according to the guidelines of the Animal Care and Use Committee of the University of California, Berkeley.

SMILES | detection of copper level changes in living cells (HEK293 cells) | fluorescence response to Cu(I) [1] | sensitivity of fluorescence to pH changes [1] | selectivity for Cu(I) over other transition metals, alkali metals and alkali earth metals [2] | detection of endogenous levels of copper in mice (SKH1 mice) | detection of changes in copper levels in living mice (SKH1 mice) | changes in integrated fluorescence from individual mice (SKH1 mice; two-tailed Student's t-test, P<0.05, n=3, except the change between CS790AM and copper, ATN-244, and CS790AM)
CSCCCNc1ccc(OC2=C(/C=C/C3=[N+](CCC(=O)OCOC(C)=O)c4ccccc4C3(C)C)CCC/C2=C\C=C2\N(CCC(=O)OCOC(C)=O)c3ccccc3C2(C)C)cc1SCCCSC.[Br-] [CS790AM] | increased fluorescence in cells loaded with copper chloride | large fluorescence increase | insensitive to pH changes | bind selectively to Cu(I) | able to detect endogenous levels of copper | can detect changes in copper levels in mice | statistically significant
CCCN1/C(=C/C=C2\CCCC(/C=C/C3=[N+](CCC)c4ccccc4C3(C)C)=C2Oc2ccc(N(CCSCCSCC)CCSCCSCC)cc2)C(C)(C)c2ccccc21.[I-] [CS788] | increased fluorescence in cells loaded with copper chloride | large fluorescence increase | insensitive to pH changes | bind selectively to Cu(I) | able to detect endogenous levels of copper | can detect changes in copper levels in mice | –

From patent publication US8865914B2, “Fluorescent probes for detection of copper” (The Regents of the University of California, priority 2012, dated 2014)
